Tests used:
Ide mRNA = assay: Quantitative RT-PCR of Ide mRNA in brains of APP23 mice; format: in vivo, mouse; details: day 18, vs vehicle, Am80/HX630 P<0.05, HX630 P=0.062 (not significant)
Description: APP23 mice begin forming amyloid deposits when they are 6 months old, but memory deficits in the MWM test appear quite early (before 3 months of age). Here, we used 8.5-month-old male APP23 mice and their WT littermates (C57BL/6J). We used stratified random sampling to divide mice (four to six per cage) into four groups to equalize the mean body weight of the study groups: mice given 0.5 mg/kg/d Am80, those given 5 mg/kg/d HX630, those given the mixture of 0.5 mg/kg/d Am80 and 5 mg/kg/d HX630, and those given the vehicle. Am80 and HX630 were suspended in 0.5% (w/v) carboxymethylcellulose solution and were orally administered to mice at 0.5 mg/kg (Am80) or 5 mg/kg (HX630) for 17 consecutive days (once daily at 18:00). Control animals received the same volume of 0.5% (w/v) carboxymethylcellulose solution orally, without the other compounds. We set the 0.5 mg/kg/d dose for Am80 on the basis that this had been found effective in other in vivo studies, such as those by Kawahara et al. and Ishido and Shudo [37]. […]
Total RNA from the cerebral hemispheres, hippocampus, or MG5 cells was prepared by guanidinium thiocyanate-phenol-chloroform extraction. […] Quantitative real-time PCRs were carried out by using the LightCycler 1.5 system (Roche, Mannheim, Germany) with the FastStart DNA Master SYBR Green I LightCycler kit (Roche). […]

[1] = normal male rats; 2 h after subcutaneous administration at 1 mg/kg; cited from earlier work
[2] = tested on: RA response element (RARE); assay: RARE luciferase reporter gene assay in Neuro2a cells; format: cell-based, mouse; details: Am80 0.2-5 μM, with or without HX630 5 μM, 24 h
Description: Since the effective concentration of Am80 in vivo has not been determined, we considered that a relatively high concentration of Am80 should be used in the in vitro study in order to ensure adequate stimulation. […] Moreover, the combination of HX630 (5 μM) with Am80 in the range of 0.2-5 μM also had little effect. Therefore, the concentrations of Am80 and HX630 were both set at 5 μM for the in vitro study.
Neuro2a cells were seeded in 24-well plates (2×10^5 cells/well) and transfected with 0.2 μg of pGL3-RARE-Luc (#13468; Addgene) or pGL3-Luc vector (Promega) and 0.05 μg of Renilla luciferase vector (phRL-TK) (Promega), using Effectene reagent (Qiagen) according to the manufacturer's protocol. Five hours after transfection, cells were exposed to Am80 (5 μM) and/or HX630 (5 μM) in the medium for 24 h. Luciferase activities were determined in cell lysates. Firefly luciferase activity was normalized to that of Renilla luciferase for each well.

RARγ = RARγ (Homo sapiens, UniProt P13631); details: [50]; cited from earlier work
Sequence of RARγ (P13631 whole entry, species assumed): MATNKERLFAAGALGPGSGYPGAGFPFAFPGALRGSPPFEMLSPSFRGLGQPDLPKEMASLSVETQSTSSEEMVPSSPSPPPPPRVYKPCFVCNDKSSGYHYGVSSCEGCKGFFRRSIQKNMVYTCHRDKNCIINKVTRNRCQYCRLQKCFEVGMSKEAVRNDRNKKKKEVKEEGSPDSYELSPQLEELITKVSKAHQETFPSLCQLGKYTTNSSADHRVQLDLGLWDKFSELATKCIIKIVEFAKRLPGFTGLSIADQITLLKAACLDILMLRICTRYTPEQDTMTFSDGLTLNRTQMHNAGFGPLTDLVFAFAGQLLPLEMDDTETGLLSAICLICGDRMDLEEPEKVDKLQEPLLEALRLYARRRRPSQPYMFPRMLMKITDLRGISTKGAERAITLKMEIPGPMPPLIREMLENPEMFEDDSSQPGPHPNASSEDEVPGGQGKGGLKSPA

With `CN1c2ccccc2N=C(c2ccc(C(=O)O)cc2)c2cc3c(cc21)C(C)(C)CCC3(C)C` [HX630, 4-[5H-2,3-(2,5dimethyl-2,5-hexano)-5-methyldibenzo[b,e]-diazepin-11-yl]benzoic acid] the “Ide mRNA level in brain” value (Ide mRNA) was “slight increase”.

In the case of `CC1(C)CCC(C)(C)c2cc(NC(=O)c3ccc(C(=O)O)cc3)ccc21` [Am80, 4-{(5,6,7,8-tetrahydro-5,5,8,8-tetramethyl-2-naphthalenyl)carbamoyl}benzoic acid], the “cerebral tissue content of Am80” value [1] is given as “around 100 pmol/g tissue”, the “RARE-luciferase activity in Neuro2a cells” value [2] is given as “hardly altered” and the “binding to RARγ” value (RARγ) is given as “hardly binds”.
